pIC50: −log10 of the molar value.
molecular target: activated ERK2 (Homo sapiens (Human), UniProt P28482); test: Activated ERK2 (20 pM) Kinase Assay (AlphaScreen, ERKtide phosphorylation); assay type: biochemical; conditions: 0.02 nM ERK2, 400 nM ERKtide peptide, 35 μM ATP, 30 min preincubation
Summary of the method: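 Activated human ERK2 (0.02 nM) preincubated 30 min with compounds, then 400 nM ERKtide and 35 μM ATP added for 4 h at ambient temperature in HEPES pH 7.5, MgCl2, DTT, Tween-20, BSA. EDTA stop; phospho-peptide read by AlphaScreen after overnight dark incubation; four-parameter IC50.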

Chain of activated ERK2 (P28482 whole entry): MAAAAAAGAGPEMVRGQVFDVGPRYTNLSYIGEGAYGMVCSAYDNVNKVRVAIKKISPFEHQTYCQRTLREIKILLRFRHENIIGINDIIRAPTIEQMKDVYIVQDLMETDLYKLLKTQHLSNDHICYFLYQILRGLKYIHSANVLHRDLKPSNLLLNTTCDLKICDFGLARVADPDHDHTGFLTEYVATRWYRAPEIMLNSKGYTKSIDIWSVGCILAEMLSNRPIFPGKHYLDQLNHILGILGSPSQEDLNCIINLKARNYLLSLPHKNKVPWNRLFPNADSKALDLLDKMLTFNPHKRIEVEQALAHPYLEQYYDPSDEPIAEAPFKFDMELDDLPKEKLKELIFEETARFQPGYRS

Question: `Nc1ncc([C@H]2CC[C@@H](O)CC2)nc1-c1ccc(C(=O)N[C@H](CO)c2cccc(I)c2)c(F)c1` [Example 347, 4-(3-amino-6-((1s,4R)-4-hydroxy-cyclohexyl)pyrazin-2-yl)-2-fluoro-N-((S)-2-hydroxy-1-(3-iodophenyl)ethyl) benzamide] was tested. Which pIC50 did it give?
Answer: 9.71

Question: How did the pIC50 turn out when `CNC[C@@H](NC(=O)c1ccc(-c2nc([C@@H]3CC[C@@H](O)[C@@H](F)C3)cnc2N)cc1F)c1cc(F)cc(Br)c1` [Example 355, 4-(3-amino-6-((1R,3S,4R)-3-fluoro-4-hydroxy-cyclohexyl)pyrazin-2-yl)-N-((S)-1-(3-bromo-5-fluorophenyl)-2-(methylamino)ethyl)-2-fluorobenzamide] was run?
Answer: 10.64

Question: With `CNC[C@@H](NC(=O)c1ccc(-c2nc([C@H]3CC[C@H](O)[C@H](F)C3)cnc2N)cc1F)c1cc(F)cc(Br)c1` [Example 356, 4-(3-amino-6-((1S,3R,4S)-3-fluoro-4-hydroxy-cyclohexyl)pyrazin-2-yl)-N-((S)-1-(3-bromo-5-fluorophenyl)-2-(methylamino)ethyl)-2-fluorobenzamide] as the compound, how does the pIC50 read?
Answer: 10.50

Question: `CNC[C@@H](NC(=O)c1ccc(-c2nc([C@H]3CC[C@H](O)[C@@H](F)C3)cnc2N)cc1F)c1cc(F)cc(I)c1` [Example 357, 4-(3-amino-6-((1S,3S,4S)-3-fluoro-4-hydroxy-cyclohexyl)pyrazin-2-yl)-2-fluoro-N-((S)-1-(3-fluoro-5-iodophenyl)-2-(methylamino)ethyl)benzamide] was tested. Which pIC50 did it give?
Answer: 10.84

Question: With `CNC[C@@H](NC(=O)c1ccc(-c2nc([C@@H]3CC[C@@H](O)[C@H](F)C3)cnc2N)cc1F)c1cc(F)cc(I)c1` [Example 358, 4-(3-amino-6-((1R,3R,4R)-3-fluoro-4-hydroxy-cyclohexyl)pyrazin-2-yl)-2-fluoro-N-((S)-1-(3-fluoro-5-iodophenyl)-2-(methylamino)ethyl)benzamide] as the compound, how does the pIC50 read?
Answer: 10.69

Question: How did the pIC50 turn out when `CNC[C@@H](NC(=O)c1ccc(-c2nc([C@@H]3CC[C@@H](O)[C@H](F)C3)cnc2N)cc1F)c1cccc(Br)c1` [Example 359, 4-(3-amino-6-((1R,3R,4R)-3-fluoro-4-hydroxy-cyclohexyl)pyrazin-2-yl)-N-((S)-1-(3-bromophenyl)-2-(methylamino)ethyl)-2-fluorobenzamide] was run?
Answer: 10.12

Question: With `CNC[C@@H](NC(=O)c1ccc(-c2nc([C@H]3CC[C@H](O)CC3)cnc2N)cc1F)c1cc(F)cc(I)c1` [Example 360, 4-(3-amino-6-((1r,4S)-4-hydroxy-cyclohexyl)pyrazin-2-yl)-2-fluoro-N-((S)-1-(3-fluoro-5-iodophenyl)-2-(methylamino)ethyl)benzamide] as the compound, how does the pIC50 read?
Answer: 11.18

Question: How did the pIC50 turn out when `CNC[C@@H](NC(=O)c1ccc(-c2nc([C@@H]3CC[C@@H](O)[C@H](F)C3)cnc2N)cc1F)c1cc(F)cc(Br)c1` [Example 361, 4-(3-amino-6-((1R,3R,4R)-3-fluoro-4-hydroxy-cyclohexyl)pyrazin-2-yl)-N-((S)-1-(3-bromo-5-fluorophenyl)-2-(methylamino)ethyl)-2-fluorobenzamide] was run?
Answer: 9.98

Question: With `CNC[C@@H](NC(=O)c1ccc(-c2nc(C3CCOCC3)cnc2N)cc1F)c1cc(F)cc(Br)c1` [Example 365, (S)-4-(3-amino-6-(tetrahydro-2H-pyran-4-yl)pyrazin-2-yl)-N-(1-(3-bromo-5-fluorophenyl)-2-(methylamino)ethyl)-2-fluorobenzamide] as the compound, how does the pIC50 read?
Answer: 10.68

Question: `CCNC[C@@H](NC(=O)c1ccc(-c2nc(C3CCOCC3)cnc2N)cc1F)c1cc(F)cc(Br)c1` [Example 371, (S)-4-(3-amino-6-(tetrahydro-2H-pyran-4-yl)pyrazin-2-yl)-N-(1-(3-bromo-5-fluorophenyl)-2-(ethylamino)ethyl)-2-fluorobenzamide] was tested. Which pIC50 did it give?
Answer: 10.52

Question: With `NC[C@@H](NC(=O)c1ccc(-c2nc([C@H]3CC[C@H](O)CC3)cnc2N)cc1F)c1cc(F)cc(I)c1` [Example 373, N-((S)-2-amino-1-(3-fluoro-5-iodophenyl)ethyl)-4-(3-amino-6-((1r,4S)-4-hydroxy-cyclohexyl)pyrazin-2-yl)-2-fluorobenzamide] as the compound, how does the pIC50 read?
Answer: 11.08

Question: How did the pIC50 turn out when `CNC[C@@H](NC(=O)c1ccc(-c2nc([C@H]3CC[C@H](OC)CC3)cnc2N)cc1F)c1cc(F)cc(Br)c1` [Example 374, 4-(3-amino-6-((1r,4S)-4-methoxy-cyclohexyl)pyrazin-2-yl)-N-((S)-1-(3-bromo-5-fluorophenyl)-2-(methylamino)ethyl)-2-fluorobenzamide] was run?
Answer: 10.69

Question: `CNC[C@@H](NC(=O)c1ccc(-c2nc([C@H]3CC[C@H](OC)CC3)cnc2N)cc1F)c1cccc(Br)c1` [Example 375, 4-(3-amino-6-((1r,4S)-4-methoxy-cyclohexyl)pyrazin-2-yl)-N-((S)-1-(3-bromophenyl)-2-(methylamino)ethyl)-2-fluorobenzamide] was tested. Which pIC50 did it give?
Answer: 10.40

Question: How did the pIC50 turn out when `CNC[C@@H](NC(=O)c1ccc(-c2nc([C@H]3CC[C@H](O)CC3)cnc2N)cc1F)c1cc(F)cc(Br)c1` [Example 376, 4-(3-amino-6-((1r,4S)-4-hydroxy-cyclohexyl)pyrazin-2-yl)-N-((S)-1-(3-bromo-5-fluorophenyl)-2-(methylamino)ethyl)-2-fluorobenzamide] was run?
Answer: 10.74

Question: With `CNC[C@@H](NC(=O)c1ccc(-c2nc([C@H]3CC[C@H](OC)CC3)cnc2N)cc1F)c1cccc(Cl)c1` [Example 377, 4-(3-amino-6-((1r,4S)-4-methoxy-cyclohexyl)pyrazin-2-yl)-N-((S)-1-(3-chlorophenyl)-2-(methylamino)ethyl)-2-fluorobenzamide] as the compound, how does the pIC50 read?
Answer: 10.15

Question: `CCNC[C@@H](NC(=O)c1ccc(-c2nc(C3CCOCC3)cnc2N)cc1F)c1cccc(Br)c1` [Example 378, (S)-4-(3-amino-6-(tetrahydro-2H-pyran-4-yl)pyrazin-2-yl)-N-(1-(3-bromophenyl)-2-(ethylamino)ethyl)-2-fluorobenzamide] was tested. Which pIC50 did it give?
Answer: 10.61

Question: How did the pIC50 turn out when `CCNC[C@@H](NC(=O)c1ccc(-c2nc([C@H]3CC[C@H](O)CC3)cnc2N)cc1F)c1cccc(Br)c1` [Example 379, 4-(3-amino-6-((1r,4S)-4-hydroxy-cyclohexyl)pyrazin-2-yl)-N-((S)-1-(3-bromophenyl)-2-(ethylamino)ethyl)-2-fluorobenzamide] was run?
Answer: 10.21

Question: `CNC[C@@H](NC(=O)c1ccc(-c2nc(C3CCOCC3)cnc2N)cc1F)c1cccc(Br)c1` [Example 380, (S)-4-(3-amino-6-(tetrahydro-2H-pyran-4-yl)pyrazin-2-yl)-N-(1-(3-bromophenyl)-2-(methylamino)ethyl)-2-fluorobenzamide] was tested. Which pIC50 did it give?
Answer: 11.01

Question: `CNC[C@@H](NC(=O)c1ccc(-c2nc([C@H]3CC[C@H](O)CC3)cnc2N)cc1F)c1cccc(Br)c1` [Example 381, 4-(3-amino-6-((1r,4S)-4-hydroxy-cyclohexyl)pyrazin-2-yl)-N-((S)-1-(3-bromophenyl)-2-(methylamino)ethyl)-2-fluorobenzamide] was tested. Which pIC50 did it give?
Answer: 10.68

Question: `CO[C@H]1CC[C@H](c2cnc(N)c(-c3ccc(C(=O)N[C@H](CN)c4cc(F)cc(I)c4)c(F)c3)n2)CC1` [Example 382, N-((S)-2-amino-1-(3-fluoro-5-iodophenyl)ethyl)-4-(3-amino-6-((1r,4S)-4-methoxy-cyclohexyl)pyrazin-2-yl)-2-fluorobenzamide] was tested. Which pIC50 did it give?
Answer: 10.97

Question: With `CO[C@H]1CC[C@H](c2cnc(N)c(-c3ccc(C(=O)N[C@H](CN)c4cccc(Br)c4)c(F)c3)n2)CC1` [Example 383, N-((S)-2-amino-1-(3-bromophenyl)ethyl)-4-(3-amino-6-((1r,4S)-4-methoxy-cyclohexyl)pyrazin-2-yl)-2-fluorobenzamide] as the compound, how does the pIC50 read?
Answer: 10.16

Question: `CSc1cccc([C@@H](CO)NC(=O)c2ccc(-c3nc(C4CCOCC4)cnc3N)cc2F)c1` [Example 387, (S)-4-(3-amino-6-(tetrahydro-2H-pyran-4-yl)pyrazin-2-yl)-2-fluoro-N-(2-hydroxy-1-(3-(methylthio)phenyl)ethyl)benzamide] was tested. Which pIC50 did it give?
Answer: 11.00

Question: How did the pIC50 turn out when `CSc1cccc([C@@H](CO)NC(=O)c2ccc(-c3nc([C@H]4CC[C@H](O)CC4)cnc3N)cc2F)c1` [Example 388, 4-(3-amino-6-((1r,4S)-4-hydroxy-cyclohexyl)pyrazin-2-yl)-2-fluoro-N-((S)-2-hydroxy-1-(3-(methylthio)phenyl)ethyl)benzamide] was run?
Answer: 10.57

Question: `Nc1ncc(C2CCOCC2)nc1-c1ccc(C(=O)N[C@H](CO)c2cc(F)cc(CCl)c2)c(F)c1` [Example 390, (S)-4-(3-amino-6-(tetrahydro-2H-pyran-4-yl)pyrazin-2-yl)-N-(1-(3-(chloromethyl)-5-fluorophenyl)-2-hydroxyethyl)-2-fluorobenzamide] was tested. Which pIC50 did it give?
Answer: 10.62

Question: `CSc1cc(F)cc([C@@H](CO)NC(=O)c2ccc(-c3cc(-c4cn(C)nc4C)cnc3N)cc2F)c1` [Example 394, (S)-4-(2-amino-5-(1,3-dimethyl-1H-pyrazol-4-yl)pyridin-3-yl)-2-fluoro-N-(1-(3-fluoro-5-(methylthio)phenyl)-2-hydroxyethyl) benzamide] was tested. Which pIC50 did it give?
Answer: 10.82

Question: `CSc1cc(F)cc([C@@H](CO)NC(=O)c2ccc(-c3nc(C4CCOCC4)cnc3N)cc2F)c1` [Example 395, (S)-4-(3-amino-6-(tetrahydro-2H-pyran-4-yl)pyrazin-2-yl)-2-fluoro-N-(1-(3-fluoro-5-(methylthio)phenyl)-2-hydroxyethyl) benzamide] was tested. Which pIC50 did it give?
Answer: 11.08

Question: `CSc1cc(F)cc([C@@H](CO)NC(=O)c2ccc(-c3nc([C@H]4CC[C@H](O)CC4)cnc3N)cc2F)c1` [Example 396, 4-(3-amino-6-((1r,4S)-4-hydroxy-cyclohexyl)pyrazin-2-yl)-2-fluoro-N-((S)-1-(3-fluoro-5-(methylthio)phenyl)-2-hydroxyethyl) benzamide] was tested. Which pIC50 did it give?
Answer: 10.70

Question: With `C[C@@H](O)[C@@H](NC(=O)c1ccc(-c2nc([C@H]3CC[C@H](O)CC3)cnc2N)cc1F)c1cccc(Cl)c1` [Example 398, 4-(3-amino-6-((1r,4S)-4-hydroxy-cyclohexyl)pyrazin-2-yl)-N-((1S,2R)-1-(3-chlorophenyl)-2-hydroxypropyl)-2-fluorobenzamide] as the compound, how does the pIC50 read?
Answer: 9.55

From patent US9242996B2 (Novartis AG, priority 2013, dated 2016)
